Assay results published in publication PMC12351382, “Fibrinography and thrombography (thrombodynamics-4D) in atrial fibrillation assessment of direct oral anticoagulants in geriatrics patients aged 80 years and older receiving direct oral anticoagulant therapy” (Research and Practice in Thrombosis and Haemostasis, 2025).

Experiments:
[1] = system: thrombin generation; assay: Thrombodynamics-4D thrombography in pooled normal plasma (Cryocheck) spiked with DOACs; assay type: biochemical, human
Method: (§1) Frozen pooled normal plasma samples (Cryocheck-Cryopep) were spiked with increasing concentrations of DOACs (0-450 ng/mL), as previously described. […] were kindly provided by Bristol Myers Squibb/Pfizer, Bayer Healthcare, and Boehringer Ingelheim, respectively.
(§2) The TD-4D assay was performed centrally using the Thrombodynamics analyzer system (Hemacore, Diapharma) with the TD-4D PLS dedicated kit (Hemacore, Diapharma). The system simultaneously measures spatiotemporal parameters of fibrin clot formation (fibrinography) and TG process (thrombography) in a thin layer of unstirred plasma. Briefly, 120 μL of platelet-poor plasma is added to a microcuvette containing corn trypsin inhibitor to prevent contribution of contact phase activation, then 5 μL of phospholipid solution (manufacturer’s reagent) is added. After incubation for 15 minutes at 37 °C in the Thrombodynamics device, the mixture is transferred to a second microcuvette containing calcium ions, and then immediately transferred to the measurement cuvette. Finally, the activator insert, whose surface is coated with immobilized tissue factor (100 pmol/m^2), is then transferred to the cuvette. The process of fibrin clot formation is recorded in a time-lapse video-microscopy mode using a dark-field light scattering method. Simultaneously, the system monitors TG by fluorimetry, based on the ability of thrombin to cleave a fluorogenic substrate, 7-amino-4-methylcoumarin (AMC) bound to a short amino acid sequence (Arg-Gly-Gly). The rate of AMC formation is proportional to local thrombin concentration. The microcuvette is maintained at 37 °C and is illuminated with red (625 nm) or ultra-violet (365 nm) light emitting diodes. Clot growth is detected with red light scattering, while AMC fluorescence is detected with UV. Scattered red light and fluorescence passing through the macro lens are recorded by a charge-coupled device system. Images under red and blue light are acquired once per minute. […]
(§3) The following fibrinography parameters were recorded (see Supplementary Table 1): (i) lag time (Tlag, minutes); (ii) initial rate of clot growth (Vi, μm/min); (iii) rate of clot growth (V, μm/min); (iv) clot size (CS, μm) measured at 30 minutes; (v) clot density (D, arbitrary units); (vi) time to spontaneous clotting (Tsp, minutes). The following thrombography parameters (at the near-activator area) were recorded (see Supplementary Table 1): (i) Tlag (minutes); (ii) time to thrombin peak (minutes); (iii) maximal thrombin concentration (ie, thrombin peak height, Cmax_ATG, AU/L); (iv) endogenous thrombin potential (ETP_ATG, AU⋅min/L); (v) stationary amplitude of moving peak of thrombin (Ast, AU/L); (vi) rate of thrombin peak propagation (μm/min; see Supplementary Videos 1–3).

[2] = system: fibrin clot formation; assay: Thrombodynamics-4D fibrinography in plasma samples from ADAGE patients on DOACs; assay type: in vivo, human; settings: for CS (clot size at 30 minutes), median (IQR) / CS (clot size at 30 minutes), range / D (clot density), median (IQR) / D (clot density), range / Fibrinography Tlag (lag time), median (IQR) / Fibrinography Tlag (lag time), range / Initial rate of clot growth (Vi), median (IQR) / Initial rate of clot growth (Vi), range / Time to Tsp (spontaneous clotting), median (IQR) / Time to Tsp (spontaneous clotting), range: ADAGE patients, reduced dose (regimens as E1)
Text: (§4) ADAGE is an academic, prospective, observational multicenter study (NCT 02464488; for details, see Foulon-Pinto et al.). We recruited hospitalized patients from the university hospital’s geriatric department (Assistance Publique-Hôpitaux de Paris, Paris, France). […] The DOAC dose regimen was at the discretion of the physician. Exclusion criteria included any acute, unstable comorbid condition or an estimated life expectancy of a few weeks. Sampling (see below) and last DOAC intake times were recorded on a standardized request form. Sampling time points were at the discretion of the physicians over a period of 20 days following inclusion. Time points were classified according to the time elapsed from the last oral intake (T, hours) for patients receiving rivaroxaban. T1 to T4 corresponded to peak time (Tmax), and T20 to T24 corresponded to trough (Tmin). […] Physicians prospectively collected demographic, clinical, and laboratory data (including creatinine clearance [CrCl] calculated with the Cockcroft–Gault formula). The study was approved by the institutionnel Ethics Committee (Comité consultatif de protection des personnes pour la recherche biomédicale–Île-de-France-6–number 15.074bis). All participants gave written informed consent to participate in the study. Only patients for whom remaining plasma aliquots were available were included in the present study.
(§5) Tubes were sent to each centre’s laboratory within 2 hours after sampling and immediately double-centrifuged for 15 minutes at 2000 × g at 15 to 22 °C to obtain platelet-poor plasma. Plasma samples (500 μL aliquots) were stored at −80 °C prior to shipment on dry ice for central analysis (Haematology Laboratory, Hôpital Lariboisière). Plasma samples were thawed for 3 to 5 minutes in a 37 °C water bath just before testing.
as §2, with “minute. The whole analysis lasts 1 hour. The Thrombodynamics software (Hemacore, Diapharma) calculates parameters of spatiotemporal dynamics of fibrin clot formation and TG [40, 46].” for “minute.”

[3] = Plasma DOAC concentration in ADAGE patients (chromogenic anti-FXa assay for rivaroxaban and apixaban; anti-FIIa Hemoclot assay for dabigatran); assay type: in vivo, human; settings: for DOAC concentration, range: ADAGE patients, reduced dose (regimens as E1)
Text: as §4, §5
Dedicated calibrations and controls were used. The lower limit of quantification was 20 ng/mL for the 3 assays.

[4] = system: fibrin clot formation; assay: Thrombodynamics-4D fibrinography in pooled normal plasma (Cryocheck) spiked with DOACs; assay type: biochemical, human; settings: 0 to 1000 nM, mainly at low DOAC concentrations
Method: as §1
The TD-4D assay was performed centrally using the Thrombodynamics analyzer system (Hemacore, Diapharma) with the TD-4D PLS dedicated kit (Hemacore, Diapharma). The system simultaneously measures spatiotemporal parameters of fibrin clot formation (fibrinography) and TG process (thrombography) in a thin layer of unstirred plasma. Briefly, 120 μL of platelet-poor plasma is added to a microcuvette containing corn trypsin inhibitor to prevent contribution of contact phase activation, then 5 μL of phospholipid solution (manufacturer’s reagent) is added. […] The process of fibrin clot formation is recorded in a time-lapse video-microscopy mode using a dark-field light scattering method. […] Clot growth is detected with red light scattering, while AMC fluorescence is detected with UV. Scattered red light and fluorescence passing through the macro lens are recorded by a charge-coupled device system. […]
as §3

[5] = system: thrombin generation; assay: Thrombodynamics-4D thrombography in plasma samples from ADAGE patients on DOACs; assay type: in vivo, human; settings: for ETP (endogenous thrombin potential, ETP_ATG), median (IQR) / ETP (endogenous thrombin potential, ETP_ATG), range / Thrombin peak height (Cmax_ATG), median (IQR) / Thrombin peak height (Cmax_ATG), range / Thrombography Tlag (Lag_ATG), median (IQR) / Thrombography Tlag (Lag_ATG), range / Time to peak (Tmax_ATG), median (IQR) / Time to peak (Tmax_ATG), range: ADAGE patients, reduced dose (regimens as E1)
Text: as §4, §5
as §2, with “minute. The whole analysis lasts 1 hour. The Thrombodynamics software (Hemacore, Diapharma) calculates parameters of spatiotemporal dynamics of fibrin clot formation and TG [40, 46].” for “minute.”

[6] = all ADAGE patient samples, Spearman
[7] = univariate analysis, Tmax, line marked Halving
[8] = univariate analysis, Tmin, line marked Halving
[9] = all ADAGE patient samples, any time point and dose

In the case of `COc1ccc(-n2nc(C(N)=O)c3c2C(=O)N(c2ccc(N4CCCCC4=O)cc2)CC3)cc1` [Apixaban], the “Change of Ast (stationary amplitude of thrombin moving peak) with increasing concentrations” value [1] is reported as “decreased”, the “CS (clot size at 30 minutes), median (IQR)” value ([2]; Tmax (peak)) is reported as 1362 (1317-1698) μm and the “CS (clot size at 30 minutes), range” value ([2]; Tmax (peak)) is reported as 1134-1857 μm. For the same molecule, the “D (clot density), median (IQR)” value ([2]; Tmax (peak)) was 25,340 (22,600-27,790) a.u, the “D (clot density), range” value ([2]; Tmax (peak)) was 14,090-34,880 a.u and the “Fibrinography Tlag (lag time), median (IQR)” value ([2]; Tmax (peak)) was 1.3 (1.2-1.4) min. The “Fibrinography Tlag (lag time), range” value ([2]; Tmax (peak)) was 0.9 to 2.3 min, the “Initial rate of clot growth (Vi), median (IQR)” value ([2]; Tmax (peak)) was 64.9 (60.9-74.2) μm/min and the “Initial rate of clot growth (Vi), range” value ([2]; Tmax (peak)) was 56.1- 95.5 μm/min. The “Time to Tsp (spontaneous clotting), median (IQR)” value ([2]; Tmax (peak)) was 22.9 (12.1-31.1) min, the “Time to Tsp (spontaneous clotting), range” value ([2]; Tmax (peak)) was 6.8 to 48.2 min and the “CS (clot size at 30 minutes), median (IQR)” value ([2]; Tmin (trough)) was 1655 (1395-1780) μm. For the same molecule, the “CS (clot size at 30 minutes), range” value ([2]; Tmin (trough)) was 1170-2147 μm, the “D (clot density), median (IQR)” value ([2]; Tmin (trough)) was 25,470 (21,190-29,910) a.u and the “D (clot density), range” value ([2]; Tmin (trough)) was 15,530-37,550 a.u. The “Fibrinography Tlag (lag time), median (IQR)” value ([2]; Tmin (trough)) was 1.1 (1.0-1.3) min, the “Fibrinography Tlag (lag time), range” value ([2]; Tmin (trough)) was 0.7 to 1.8 min and the “Initial rate of clot growth (Vi), median (IQR)” value ([2]; Tmin (trough)) was 68.3 (64.8-76.2) μm/min. For the same molecule, the “Initial rate of clot growth (Vi), range” value ([2]; Tmin (trough)) was 54.6-88.8 μm/min, the “Time to Tsp (spontaneous clotting), median (IQR)” value ([2]; Tmin (trough)) was 23.0 (12.8-28.1) min and the “Time to Tsp (spontaneous clotting), range” value ([2]; Tmin (trough)) was 6.8 to 46.7 min. The “Change of CS (clot size) with increasing concentrations” value ([2]; all ADAGE patient samples) was “decreased”, the “Association of D (clot density) with DOAC concentration” value [2, 6] was “not” and the “Relationship between time to spontaneous clot formation (Tsp) and DOAC levels” value [2, 6] was “no relationship”. For the same molecule, the “Effect of DOAC concentration at Tmax (βC.pic) on fibrinography initial velocity of clot formation” value [2, 7] was “≈ 0.02018%”, the “Effect of DOAC concentration at Tmin (βC.res) on fibrinography initial velocity of clot formation” value [2, 8] was “≈ 0.04558%” and the “DOAC concentration, range” value ([3]; Tmax (peak)) was 69 to 442 ng/mL. The “DOAC concentration, range” value ([3]; Tmin (trough)) was 20 to 240 ng/mL, the “DOAC plasma concentration, lower end of range” value [3, 9] was under 20 ng/mL and the “DOAC plasma concentration, upper end of range” value [3, 9] was 547 ng/mL. For the same molecule, the “Samples in which spontaneous clotting occurred” value [4] was 14%, the “ETP (endogenous thrombin potential, ETP_ATG), median (IQR)” value ([5]; Tmax (peak)) was 1698 (1280-1961) AU⋅min/L and the “ETP (endogenous thrombin potential, ETP_ATG), range” value ([5]; Tmax (peak)) was 971-3095 AU⋅min/L. The “Thrombin peak height (Cmax_ATG), median (IQR)” value ([5]; Tmax (peak)) was 309 (240-395) AU/L, the “Thrombin peak height (Cmax_ATG), range” value ([5]; Tmax (peak)) was 206-507 AU/L and the “Thrombography Tlag (Lag_ATG), median (IQR)” value ([5]; Tmax (peak)) was 0.3 (0.2-0.6) min. For the same molecule, the “Thrombography Tlag (Lag_ATG), range” value ([5]; Tmax (peak)) was 0.1 to 1.3 min, the “Time to peak (Tmax_ATG), median (IQR)” value ([5]; Tmax (peak)) was 2.1 (2.1-2.6) min and the “Time to peak (Tmax_ATG), range” value ([5]; Tmax (peak)) was 1.2 to 4.6 min. For the same molecule, the “ETP (endogenous thrombin potential, ETP_ATG), median (IQR)” value ([5]; Tmin (trough)) was 1711 (1436-1978) AU⋅min/L, the “ETP (endogenous thrombin potential, ETP_ATG), range” value ([5]; Tmin (trough)) was 924-2958 AU⋅min/L and the “Thrombin peak height (Cmax_ATG), median (IQR)” value ([5]; Tmin (trough)) was 325 (292-379) AU/L. The “Thrombin peak height (Cmax_ATG), range” value ([5]; Tmin (trough)) was 158-511 AU/L, the “Thrombography Tlag (Lag_ATG), median (IQR)” value ([5]; Tmin (trough)) was 0.2 (0.2-0.6) min and the “Thrombography Tlag (Lag_ATG), range” value ([5]; Tmin (trough)) was 0.1 to 1.0 min. For the same molecule, the “Time to peak (Tmax_ATG), median (IQR)” value ([5]; Tmin (trough)) was 2.1 (2.1-2.1) min, the “Time to peak (Tmax_ATG), range” value ([5]; Tmin (trough)) was 1.6 to 3.6 min and the “Change of ETP_ATG with increasing DOAC plasma concentrations” value ([5]; all ADAGE patient samples) was “decreased”. For the same molecule, the “Effect of DOAC concentration at Tmax (βC.pic) on thrombography peak height (PH)” value [5, 7] was “≈ 0.07471%” and the “Effect of DOAC concentration at Tmin (βC.res) on thrombography peak height (PH)” value [5, 8] was “≈ 0.1698%”.
